The values below come from patent US12195464B2, “Lumateperone bis-tosylate salts and crystals and methods for manufacture thereof” (INTRA-CELLULAR THERAPIES, INC., priority 2018, dated 2025).

The conditions of data set [1]: salt of U.S. Pat. No. 7,183,282; cited from earlier work.
The conditions of data set [2]: salt of U.S. Pat. No. 7,183,282; cited from earlier work. The source holds these as a separate data set.
Data set [3] addresses T1, 5-HT2C (Homo sapiens, UniProt P28335).
T1 sequence (P28335 33-458): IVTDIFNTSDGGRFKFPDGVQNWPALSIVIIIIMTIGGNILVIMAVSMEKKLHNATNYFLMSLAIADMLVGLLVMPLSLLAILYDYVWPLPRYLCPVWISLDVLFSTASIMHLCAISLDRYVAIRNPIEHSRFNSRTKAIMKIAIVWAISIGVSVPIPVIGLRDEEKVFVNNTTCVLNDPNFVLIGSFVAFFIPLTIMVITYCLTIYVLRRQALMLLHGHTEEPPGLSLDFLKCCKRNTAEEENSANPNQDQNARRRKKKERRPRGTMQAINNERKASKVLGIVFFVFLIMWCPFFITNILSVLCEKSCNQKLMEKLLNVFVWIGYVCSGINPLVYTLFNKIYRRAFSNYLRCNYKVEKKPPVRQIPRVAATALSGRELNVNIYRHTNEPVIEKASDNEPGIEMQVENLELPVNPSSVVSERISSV
The settings on record: receptor associated with cognitive and metabolic side effects; cited from earlier work.

In data set [4] the target is H1 histaminergic (Homo sapiens, UniProt P35367). The settings on record: receptor associated with cognitive and metabolic side effects; cited from earlier work.
Data set [5] can be described thus: solubility in organic solvents. It is filed as physicochemical. The settings on record: free base, variety of organic solvents.
For data set [6], the system named is NMDA and AMPA signaling. The settings on record: especially in the medial prefrontal cortex (mPFC); indirectly via D1 interaction; cited from earlier work.
The subject of data set [7] is muscarinic. The settings on record: receptor associated with cognitive and metabolic side effects; cited from earlier work.
For data set [8] the following is noted: free base form; cited from earlier work.

H1 histaminergic, sequence (P35367 whole entry): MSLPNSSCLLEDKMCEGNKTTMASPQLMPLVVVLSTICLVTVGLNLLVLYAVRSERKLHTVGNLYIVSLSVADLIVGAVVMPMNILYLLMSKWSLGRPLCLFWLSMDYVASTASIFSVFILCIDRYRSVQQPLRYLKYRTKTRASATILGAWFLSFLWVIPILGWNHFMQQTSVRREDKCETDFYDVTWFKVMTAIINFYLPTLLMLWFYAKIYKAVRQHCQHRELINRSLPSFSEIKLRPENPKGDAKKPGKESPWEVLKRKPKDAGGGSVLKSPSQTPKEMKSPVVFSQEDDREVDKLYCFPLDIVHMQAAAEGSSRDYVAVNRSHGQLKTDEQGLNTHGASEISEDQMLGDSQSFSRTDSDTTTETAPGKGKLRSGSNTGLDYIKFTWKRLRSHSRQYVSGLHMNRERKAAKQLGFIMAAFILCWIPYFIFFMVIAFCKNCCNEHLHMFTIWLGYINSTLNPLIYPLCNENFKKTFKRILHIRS

As to `CN1CCN2c3c(cccc31)C1CN(CCCC(=O)c3ccc(F)cc3)CCC12.Cl` (centres unmarked) [hydrochloride salt form of ITI-007], the “stability (in words)” value in data set [1] is on record as “poor stability”. In data set [2], the “hygroscopicity (in words)” value is “hygroscopic”.
For the molecule `CN1CCN2c3c(cccc31)[C@@H]1CN(CCCC(=O)c3ccc(F)cc3)CC[C@@H]12` [ITI-007, 4-((6bR,10aS)-3-methyl-2,3,6b,9,10,10a-hexahydro-1H-pyrido[3′,4′:4,5]pyrrolo[1,2,3-de]quinoxalin-8(7H)-yl)-1-(4-fluorophenyl)-1-butanone], in data set [3], the “binding to 5-HT2C receptor” value is “negligible binding”. Also, the “binding to H1 histaminergic receptor” value in data set [4] is “negligible binding”. Further, the “solubility in organic solvents” value in data set [5] is reported as “good solubility”. The “NMDA and AMPA signaling in the brain” value in data set [6] is “enhanced”. In data set [7], the “binding to muscarinic receptors” value is reported as “negligible binding”. Besides, in data set [8], the aqueous solubility entry is “poor aqueous solubility”.
